Activity calls are given as the source filed them.
Key:
[1] = Fluorescence-based cell-based high throughput dose response assay for inhibitors of the interaction of nucleotide-binding oligomerization domain containing 2 (NOD2) and the receptor-interacting serine-threonine kinase 2 (RIPK2).; type: functional; conditions: Homo sapiens
HEK293 [2] = experiment: cells; conditions: Homo sapiens
[3] = molecular target: T1, Heat shock factor protein 1 (Mus musculus, UniProt P38532); experiment: decrease of HSF1-responsive luciferase luminescence – cell-based, NIH3T3, dose retest, confirmation (AID 2382); type: functional;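 further: NIH3T3 fibroblasts with HSF1-driven luciferase reporter stressed by proteasome inhibitor MG132; luminescence from HSF1-driven luciferase expression after 8 hours of MG132 stress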
T1 sequence (P38532 whole entry): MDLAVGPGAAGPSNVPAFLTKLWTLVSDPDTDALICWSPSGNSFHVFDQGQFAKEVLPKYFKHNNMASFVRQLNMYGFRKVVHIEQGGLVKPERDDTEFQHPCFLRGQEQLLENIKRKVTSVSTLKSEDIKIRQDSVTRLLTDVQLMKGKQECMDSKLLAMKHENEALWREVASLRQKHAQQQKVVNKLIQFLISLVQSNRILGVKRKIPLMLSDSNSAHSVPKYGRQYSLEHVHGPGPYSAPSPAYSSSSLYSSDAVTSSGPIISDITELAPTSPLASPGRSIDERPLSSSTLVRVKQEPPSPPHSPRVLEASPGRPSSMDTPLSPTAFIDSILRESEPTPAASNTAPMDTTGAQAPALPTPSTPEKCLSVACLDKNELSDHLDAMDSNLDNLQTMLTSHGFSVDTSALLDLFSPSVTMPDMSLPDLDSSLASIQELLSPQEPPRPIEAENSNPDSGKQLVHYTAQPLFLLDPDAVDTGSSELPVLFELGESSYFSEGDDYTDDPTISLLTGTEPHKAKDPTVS

[4] = NIH3T3 cell viability loss – ATP luminescence, mouse fibroblasts, counter-screen, dose response (AID 2010); type: functional, cell-based;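 further: cells exposed to compound for about 90 hours before reading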
Estrogen receptor beta = Estrogen receptor beta (Homo sapiens, UniProt Q92731);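 further: recombinant ER-beta bound to coactivator SRC1 peptide in presence of estradiol agonist; inhibitors block coactivator peptide binding and lower the FRET signal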
Sequence of Estrogen receptor beta (Q92731 whole entry): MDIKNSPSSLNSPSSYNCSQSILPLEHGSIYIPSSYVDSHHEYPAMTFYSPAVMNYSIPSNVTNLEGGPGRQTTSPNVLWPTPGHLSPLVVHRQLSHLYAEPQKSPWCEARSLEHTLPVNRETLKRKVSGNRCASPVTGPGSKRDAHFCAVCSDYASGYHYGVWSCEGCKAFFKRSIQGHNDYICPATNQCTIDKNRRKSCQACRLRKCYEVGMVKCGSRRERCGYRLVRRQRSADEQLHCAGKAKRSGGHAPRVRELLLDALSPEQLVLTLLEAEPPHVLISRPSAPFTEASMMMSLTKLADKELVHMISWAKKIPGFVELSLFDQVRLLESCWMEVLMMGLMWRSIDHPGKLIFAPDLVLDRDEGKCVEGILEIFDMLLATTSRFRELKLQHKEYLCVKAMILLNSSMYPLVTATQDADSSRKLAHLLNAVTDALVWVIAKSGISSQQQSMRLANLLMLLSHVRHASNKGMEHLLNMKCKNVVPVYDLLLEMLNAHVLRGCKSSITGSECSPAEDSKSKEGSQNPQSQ

[5] = Trypanosoma cruzi growth suppression in host cells – NIH3T3 host cells, beta-gal luminescence, confirmation (AID 2044); type: functional, cell-based;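 further: intracellular parasites grown in NIH/3T3 mouse fibroblasts as host cells; luminescent beta-galactosidase reporter signal from transgenic T. cruzi replicating inside host cells; inhibitors lower the luminescence signal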
HEK293 [6] = experiment: cells; conditions: Homo sapiens; remark: listed apart in the source
Albumin = Albumin (Bos taurus, UniProt P02769); experiment: Counterscreen for inhibitors of T-cell receptor (TCR)-CD3 interaction: Fluorescence-based biochemical high throughput dose response assay to identify inhibitors of T-cell receptor (TCR)-CD3 interaction using a TAMRA-labeled BSA probe.; type: functional
Sequence of Albumin (P02769 whole entry): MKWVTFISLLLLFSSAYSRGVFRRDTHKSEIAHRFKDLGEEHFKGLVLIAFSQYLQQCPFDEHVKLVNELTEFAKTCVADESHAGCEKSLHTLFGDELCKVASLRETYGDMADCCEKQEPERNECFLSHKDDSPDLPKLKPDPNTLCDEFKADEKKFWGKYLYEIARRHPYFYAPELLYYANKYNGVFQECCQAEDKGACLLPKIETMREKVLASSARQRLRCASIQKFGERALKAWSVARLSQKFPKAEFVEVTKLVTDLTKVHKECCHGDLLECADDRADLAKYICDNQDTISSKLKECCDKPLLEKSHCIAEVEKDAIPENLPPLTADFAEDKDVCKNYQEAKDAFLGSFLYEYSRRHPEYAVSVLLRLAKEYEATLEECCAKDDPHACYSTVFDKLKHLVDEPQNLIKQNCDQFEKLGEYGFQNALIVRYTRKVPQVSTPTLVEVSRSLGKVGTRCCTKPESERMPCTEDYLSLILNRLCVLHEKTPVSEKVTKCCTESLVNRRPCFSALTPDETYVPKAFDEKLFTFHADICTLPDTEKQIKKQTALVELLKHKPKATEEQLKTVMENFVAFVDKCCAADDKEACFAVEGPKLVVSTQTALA

[7] = NIH-3T3 fibroblast cytotoxicity, dose response, cytotoxicity control, cell-based, fluorescence, Alamar Blue, secondary assay (AID 2327); type: functional;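 further: NIH-3T3 mouse fibroblasts cultured with fluconazole at 8 µg/mL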
Exodeoxyribonuclease V = molecular target: T2, Exodeoxyribonuclease V (Escherichia coli (strain K12), UniProt P04993+P07648+P08394); experiment: RecBCD inhibition via phage-restricted bacterial growth – absorbance, V66 E. coli, mutant T4 phage, counter-screen for AddAB inhibitor project, dose response (AID 492957); type: functional, cell-based, Escherichia coli str. K-12 substr. MG1655
T2 sequence (P04993 whole entry): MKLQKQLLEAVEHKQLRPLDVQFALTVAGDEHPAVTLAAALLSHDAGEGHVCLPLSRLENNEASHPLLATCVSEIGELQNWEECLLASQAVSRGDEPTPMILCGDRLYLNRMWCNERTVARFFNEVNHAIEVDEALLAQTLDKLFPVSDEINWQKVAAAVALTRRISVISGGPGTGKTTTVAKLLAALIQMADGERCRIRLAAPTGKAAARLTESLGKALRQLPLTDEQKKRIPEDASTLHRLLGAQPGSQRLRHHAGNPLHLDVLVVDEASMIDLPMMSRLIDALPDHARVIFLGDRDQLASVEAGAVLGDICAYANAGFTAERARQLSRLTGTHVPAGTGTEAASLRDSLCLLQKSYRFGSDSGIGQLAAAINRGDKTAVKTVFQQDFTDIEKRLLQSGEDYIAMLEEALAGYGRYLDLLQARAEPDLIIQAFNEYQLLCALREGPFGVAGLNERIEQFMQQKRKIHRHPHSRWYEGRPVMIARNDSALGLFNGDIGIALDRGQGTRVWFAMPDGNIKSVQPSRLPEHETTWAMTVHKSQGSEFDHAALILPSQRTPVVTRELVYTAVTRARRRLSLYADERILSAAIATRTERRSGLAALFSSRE
T2 sequence (P07648 whole entry): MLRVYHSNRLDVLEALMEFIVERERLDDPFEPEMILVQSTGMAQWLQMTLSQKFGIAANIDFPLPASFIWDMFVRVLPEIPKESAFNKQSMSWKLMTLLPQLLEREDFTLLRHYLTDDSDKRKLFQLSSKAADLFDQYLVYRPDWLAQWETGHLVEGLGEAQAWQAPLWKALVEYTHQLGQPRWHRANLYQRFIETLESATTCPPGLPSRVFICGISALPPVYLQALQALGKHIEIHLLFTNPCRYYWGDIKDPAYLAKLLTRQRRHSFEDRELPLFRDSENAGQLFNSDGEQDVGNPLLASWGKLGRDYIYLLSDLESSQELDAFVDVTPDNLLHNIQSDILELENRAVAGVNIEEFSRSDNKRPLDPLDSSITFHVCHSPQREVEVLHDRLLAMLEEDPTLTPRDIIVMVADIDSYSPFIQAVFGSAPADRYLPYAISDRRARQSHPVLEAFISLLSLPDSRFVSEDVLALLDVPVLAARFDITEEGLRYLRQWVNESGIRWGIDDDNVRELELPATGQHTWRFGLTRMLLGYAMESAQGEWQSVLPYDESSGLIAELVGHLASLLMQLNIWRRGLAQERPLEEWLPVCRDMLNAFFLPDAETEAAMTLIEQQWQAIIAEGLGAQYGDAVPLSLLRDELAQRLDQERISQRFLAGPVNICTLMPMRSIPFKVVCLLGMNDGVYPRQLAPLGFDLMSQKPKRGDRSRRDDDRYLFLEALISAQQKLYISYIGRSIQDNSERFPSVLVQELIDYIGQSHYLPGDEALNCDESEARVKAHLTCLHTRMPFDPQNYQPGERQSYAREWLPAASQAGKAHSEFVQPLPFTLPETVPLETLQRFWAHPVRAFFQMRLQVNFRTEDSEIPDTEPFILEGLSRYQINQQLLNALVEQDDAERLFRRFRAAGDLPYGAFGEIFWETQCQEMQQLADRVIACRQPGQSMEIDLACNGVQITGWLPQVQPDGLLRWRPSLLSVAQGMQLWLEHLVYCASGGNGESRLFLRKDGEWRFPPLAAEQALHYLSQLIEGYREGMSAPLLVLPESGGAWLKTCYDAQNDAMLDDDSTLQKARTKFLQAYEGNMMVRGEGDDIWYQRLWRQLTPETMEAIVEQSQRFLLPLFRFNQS
T2 sequence (P08394 whole entry): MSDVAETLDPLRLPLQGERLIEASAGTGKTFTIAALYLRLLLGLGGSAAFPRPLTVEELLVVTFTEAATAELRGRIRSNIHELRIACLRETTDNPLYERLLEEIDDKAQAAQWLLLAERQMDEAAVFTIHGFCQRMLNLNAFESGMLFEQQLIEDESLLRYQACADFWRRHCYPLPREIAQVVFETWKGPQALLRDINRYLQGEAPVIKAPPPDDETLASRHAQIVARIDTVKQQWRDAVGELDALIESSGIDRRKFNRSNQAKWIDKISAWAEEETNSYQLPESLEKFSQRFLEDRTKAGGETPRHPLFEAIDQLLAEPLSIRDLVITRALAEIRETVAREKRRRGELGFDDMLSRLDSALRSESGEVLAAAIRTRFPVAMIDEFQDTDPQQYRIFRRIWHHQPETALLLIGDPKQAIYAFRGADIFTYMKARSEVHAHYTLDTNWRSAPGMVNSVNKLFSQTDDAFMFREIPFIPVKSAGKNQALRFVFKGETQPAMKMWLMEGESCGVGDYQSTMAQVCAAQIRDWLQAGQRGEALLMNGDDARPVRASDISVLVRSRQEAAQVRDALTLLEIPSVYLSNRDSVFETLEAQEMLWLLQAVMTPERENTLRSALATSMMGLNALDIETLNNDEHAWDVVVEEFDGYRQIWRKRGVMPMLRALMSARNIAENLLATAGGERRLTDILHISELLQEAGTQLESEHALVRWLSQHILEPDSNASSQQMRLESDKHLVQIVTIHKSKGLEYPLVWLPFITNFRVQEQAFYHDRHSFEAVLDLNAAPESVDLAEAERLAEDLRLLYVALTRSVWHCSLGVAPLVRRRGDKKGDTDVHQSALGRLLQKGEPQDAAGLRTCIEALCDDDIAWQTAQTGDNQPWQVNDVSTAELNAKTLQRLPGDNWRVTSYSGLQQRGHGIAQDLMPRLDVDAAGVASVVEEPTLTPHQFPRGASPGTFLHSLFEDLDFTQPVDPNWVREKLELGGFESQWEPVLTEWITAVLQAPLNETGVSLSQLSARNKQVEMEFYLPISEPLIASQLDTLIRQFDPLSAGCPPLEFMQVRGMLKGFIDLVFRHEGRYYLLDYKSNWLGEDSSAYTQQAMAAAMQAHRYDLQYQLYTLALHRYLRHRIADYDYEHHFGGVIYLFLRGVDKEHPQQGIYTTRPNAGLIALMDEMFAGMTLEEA

[8] = Counterscreen for AddAB inhibitors: absorbance-based bacterial cell-based high throughput dose response assay for inhibitors of bacterial viability. [Related pubchem assays (depositor defined):AID435030, AID449728, AID449731, AID488942, AID488955, AID488956]; type: functional
[9] = decrease of insulin promoter-GFP reporter – imaging, high-content screening, mouse beta cells (AID 1628); type: functional; conditions: MIN6
[10] = MIN6 cell viability loss – mouse insulinoma, cytotoxicity control, dose response (AID 2122); type: functional;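 further: confirmatory high-throughput counterscreen run to flag cytotoxic compounds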
[11] = alpha-synuclein stem-loop luciferase translation blockers – H4 neuroglioma cells, luminescence, confirmation (AID 1988); type: functional, cell-based
[12] = Luminescence Cell-Based Dose Response HTS to Identify Inhibitors of 5'UTR Stem-Loop Driven Prion Protein mRNA Translation in H4 Neuroglioblastoma Cells. [Related pubchem assays: 1827 (Project Summary), 1813 (Primary HTS)]; type: functional
[13] = luciferase reporter signal suppression in cells – H4 neuroglioma cells, luminescence, dose response (AID 1990); type: functional, cell-based
cells [14] = type: functional, cell-based
INS1 = experiment: INS-1E survival protection against cytokine death – cell-based, luminescence, retest, dose response (AID 449756); type: functional; conditions: Rattus norvegicus;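 further: cell death triggered by IL-1 beta plus TNF-alpha plus IFN-gamma mixture; protective hits raise ATP signal compared with cytokine alone wells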
cells [15] = type: functional, cell-based; remark: listed apart in the source
[16] = Luminescence Cell-Based Dose Retest to Confirm Inhibitors of Cancer Stem Cells. [Related pubchem assays (depositor defined):AID2717, AID2721]; type: functional; conditions: Homo sapiens

**Q.** For `CCc1ccc(C(=O)Cn2ncc(Cl)c(Cl)c2=O)cc1`, which IC50 [1] is on record?
**A.** The IC50 was 3.38 µM (active).

**Q.** And the EC50 (HEK293 [2])?
**A.** Its EC50 is > 59.6 µM (inactive).

**Q.** And the EC50 [3]?
**A.** Its EC50 is 5.77 µM (active).

**Q.** And the EC50 [4]?
**A.** Its EC50 is 4.03 µM (active).

**Q.** And the IC50 (Estrogen receptor beta)?
**A.** The IC50 was > 50 µM (not active).

**Q.** What about the EC50 [5] of the same molecule?
**A.** The EC50 was 2.19 µM (active).

**Q.** And the EC50 (HEK293 [6])?
**A.** The EC50 was > 59.6 µM (inactive).

**Q.** What does the source list for `COc1ccccc1NC(=O)NNC(=O)c1cc2ccccc2cc1O`?
**A.** IC50 (Albumin): > 94.1 µM (inactive); EC50 [7]: > 160 µM (inactive); IC50 (Exodeoxyribonuclease V): > 119 µM (inactive); IC50 [8]: > 119 µM (inactive)

**Q.** With `CCN(CC)C1=CC(=[N+]2CCCC2)CC(C)(C)C1` as the molecule, how does the EC50 [4] read?
**A.** Its EC50 is > 60 µM (inconclusive).

**Q.** And the IC50 [9]?
**A.** The IC50 was < 0.25 µM (active).

**Q.** What about the EC50 [5] of the same molecule?
**A.** The EC50 was 0.732 µM (active).

**Q.** What about the IC50 [10] of the same molecule?
**A.** Its IC50 is < 0.25 µM (active).

**Q.** Which results are given for `CCN1CCN(S(=O)(=O)c2cc(OCC(=O)NC3CCCCC3)c(C)cc2Cl)CC1`?
**A.** IC50 [9]: 2.29 µM (active); IC50 [10]: 2.03 µM (active)

**Q.** With `CC1(c2ccc([N+](=O)[O-])cc2)CC(C)(C)N(C(=O)c2ccccc2)c2ccccc21` (stereo not given) as the molecule, how does the IC50 [9] read?
**A.** Its IC50 is 7.17 µM (active).

**Q.** What about the IC50 [10] of the same molecule?
**A.** Its IC50 is 7.16 µM (active).

**Q.** For `C/C=C/CSc1nc2c(c(=O)[nH]c(=O)n2C)n1Cc1ccc(C)cc1`, which EC50 [11] is on record?
**A.** The EC50 was 21.4 µM (active).

**Q.** What about the EC50 [12] of the same molecule?
**A.** The EC50 was > 120 µM (not active).

**Q.** What about the EC50 (HEK293 [2]) of the same molecule?
**A.** Its EC50 is > 59.6 µM (inactive).

**Q.** And the EC50 [13]?
**A.** The EC50 was 21.2 µM (active).

**Q.** What about the EC50 (HEK293 [6]) of the same molecule?
**A.** The EC50 was > 59.6 µM (inactive).

**Q.** Which results are given for `Cc1cc([N+](=O)[O-])nn1Cc1ccc(C(=O)N/N=C/c2ccc(O)cc2O)cc1`?
**A.** EC50 (cells [14]): 9.79 µM (active); AC50 (INS1): 1.37 µM (active); EC50 (cells [15]): > 350 µM (not active); IC50 (Exodeoxyribonuclease V): > 119 µM (inactive); AC50 [16]: 1.71 µM (active); IC50 [8]: > 119 µM (inactive)
